This assay deals with ATP-dependent translocase ABCB1 (Homo sapiens, UniProt P08183). The assay can be described thus: TP_TRANSPORTER: inhibition of Verapamil binding in membranes from Vinblastine-induced Caco-2 cells. The assay is classed as functional, cell membranes, Membrane.
ATP-dependent translocase ABCB1, sequence (P08183 whole entry): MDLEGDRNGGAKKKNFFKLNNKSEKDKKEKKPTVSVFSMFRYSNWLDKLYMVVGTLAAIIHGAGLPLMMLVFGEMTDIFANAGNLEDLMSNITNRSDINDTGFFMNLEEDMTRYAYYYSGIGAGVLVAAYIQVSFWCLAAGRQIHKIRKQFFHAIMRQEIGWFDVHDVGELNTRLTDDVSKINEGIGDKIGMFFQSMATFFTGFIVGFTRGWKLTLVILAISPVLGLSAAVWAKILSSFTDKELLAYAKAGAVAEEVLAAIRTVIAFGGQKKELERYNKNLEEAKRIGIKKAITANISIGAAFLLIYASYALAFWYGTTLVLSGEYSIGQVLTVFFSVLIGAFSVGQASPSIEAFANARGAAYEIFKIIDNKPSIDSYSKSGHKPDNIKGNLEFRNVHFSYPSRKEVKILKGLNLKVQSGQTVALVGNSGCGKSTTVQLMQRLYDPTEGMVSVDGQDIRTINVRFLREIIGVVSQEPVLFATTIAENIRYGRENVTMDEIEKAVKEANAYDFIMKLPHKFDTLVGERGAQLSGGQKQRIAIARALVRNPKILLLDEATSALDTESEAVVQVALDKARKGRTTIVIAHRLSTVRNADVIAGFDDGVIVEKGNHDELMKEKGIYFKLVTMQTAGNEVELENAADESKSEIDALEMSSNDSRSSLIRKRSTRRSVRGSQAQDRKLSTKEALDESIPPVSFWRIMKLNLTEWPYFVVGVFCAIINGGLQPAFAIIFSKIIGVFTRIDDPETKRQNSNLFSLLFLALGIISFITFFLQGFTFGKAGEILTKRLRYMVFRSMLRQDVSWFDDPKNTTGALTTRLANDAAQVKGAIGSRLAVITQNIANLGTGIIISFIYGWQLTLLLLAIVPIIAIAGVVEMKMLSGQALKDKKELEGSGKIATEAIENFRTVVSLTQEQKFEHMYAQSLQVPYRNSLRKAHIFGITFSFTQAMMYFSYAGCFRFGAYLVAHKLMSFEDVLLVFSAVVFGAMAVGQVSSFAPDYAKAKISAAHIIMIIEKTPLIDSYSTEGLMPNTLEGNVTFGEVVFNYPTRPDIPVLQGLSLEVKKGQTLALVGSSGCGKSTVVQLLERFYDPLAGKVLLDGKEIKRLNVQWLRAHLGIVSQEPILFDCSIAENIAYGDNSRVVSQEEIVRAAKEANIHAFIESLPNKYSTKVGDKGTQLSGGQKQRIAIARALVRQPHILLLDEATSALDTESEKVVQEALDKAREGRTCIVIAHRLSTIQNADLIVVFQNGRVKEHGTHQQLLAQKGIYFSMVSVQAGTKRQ

As to `CC[C@]1(O)C[C@H]2CN(CCc3c([nH]c4ccccc34)[C@@](C(=O)OC)(c3cc4c(cc3OC)N(C=O)[C@H]3[C@@](O)(C(=O)OC)[C@H](OC(C)=O)[C@]5(CC)C=CCN6CC[C@]43[C@@H]65)C2)C1` [VINCRISTINE], the Ki runs as follows: (read-out: Ki1) 0.47 µM; (read-out: Ki2) 148 µM.
Regarding `COC(=O)c1ccccc1-c1c2ccc(=N)cc-2oc2cc(N)ccc12` [RHODAMINE123], the Ki (read-out: Ki1) turned out to be 0.11 µM and the Ki (read-out: Ki2) amounted to 3.4 µM.

For the origin of these results see ChEMBL document CHEMBL2074241, “Characterization of binding properties to human P-glycoprotein: development of a [3H]verapamil radioligand-binding assay” (J Pharmacol Exp Ther, 1999).
